Data as given in patent US10793564B2, “Amino acid compounds and methods of use” (Pliant Therapeutics, Inc., priority 2018, dated 2020).

The compounds below were run against recombinant human integrin αVβ6 (Homo sapiens (Human), UniProt P06756+P18564) (assay: Solid phase integrin αVβ6 binding assay). Conditions: inhibition of recombinant TGFβ1 LAP binding to coated integrin, IC50 presented in four ranges, read-out: αvβ6 Inhibition IC50 (nM) - range.
recombinant human integrin αVβ6, sequence (P06756 31-992): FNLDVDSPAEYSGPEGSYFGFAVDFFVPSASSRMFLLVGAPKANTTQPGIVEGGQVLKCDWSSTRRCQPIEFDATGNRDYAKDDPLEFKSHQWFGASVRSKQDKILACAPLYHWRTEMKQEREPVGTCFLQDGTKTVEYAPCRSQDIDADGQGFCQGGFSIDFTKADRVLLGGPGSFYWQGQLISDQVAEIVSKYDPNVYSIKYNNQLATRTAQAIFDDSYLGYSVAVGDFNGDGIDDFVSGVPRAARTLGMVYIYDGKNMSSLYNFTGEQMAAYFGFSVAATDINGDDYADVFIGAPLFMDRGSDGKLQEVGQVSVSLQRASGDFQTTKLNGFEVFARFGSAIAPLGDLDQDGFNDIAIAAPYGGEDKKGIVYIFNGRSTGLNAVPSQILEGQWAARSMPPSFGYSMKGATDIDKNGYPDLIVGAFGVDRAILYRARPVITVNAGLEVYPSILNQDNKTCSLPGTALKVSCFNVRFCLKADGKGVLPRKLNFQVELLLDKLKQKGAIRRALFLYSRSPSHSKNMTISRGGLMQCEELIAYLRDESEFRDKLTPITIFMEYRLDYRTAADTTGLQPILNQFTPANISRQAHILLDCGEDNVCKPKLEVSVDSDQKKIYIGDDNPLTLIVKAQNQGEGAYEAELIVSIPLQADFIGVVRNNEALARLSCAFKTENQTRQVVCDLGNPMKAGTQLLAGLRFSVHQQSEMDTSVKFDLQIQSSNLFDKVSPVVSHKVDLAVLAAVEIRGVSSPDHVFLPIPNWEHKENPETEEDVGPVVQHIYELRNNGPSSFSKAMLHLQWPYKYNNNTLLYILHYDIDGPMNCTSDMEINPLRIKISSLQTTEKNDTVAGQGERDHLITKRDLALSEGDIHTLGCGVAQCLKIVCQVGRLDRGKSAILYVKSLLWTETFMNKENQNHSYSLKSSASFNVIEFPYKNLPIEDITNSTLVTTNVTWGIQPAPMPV
recombinant human integrin αVβ6, sequence (P18564 22-707): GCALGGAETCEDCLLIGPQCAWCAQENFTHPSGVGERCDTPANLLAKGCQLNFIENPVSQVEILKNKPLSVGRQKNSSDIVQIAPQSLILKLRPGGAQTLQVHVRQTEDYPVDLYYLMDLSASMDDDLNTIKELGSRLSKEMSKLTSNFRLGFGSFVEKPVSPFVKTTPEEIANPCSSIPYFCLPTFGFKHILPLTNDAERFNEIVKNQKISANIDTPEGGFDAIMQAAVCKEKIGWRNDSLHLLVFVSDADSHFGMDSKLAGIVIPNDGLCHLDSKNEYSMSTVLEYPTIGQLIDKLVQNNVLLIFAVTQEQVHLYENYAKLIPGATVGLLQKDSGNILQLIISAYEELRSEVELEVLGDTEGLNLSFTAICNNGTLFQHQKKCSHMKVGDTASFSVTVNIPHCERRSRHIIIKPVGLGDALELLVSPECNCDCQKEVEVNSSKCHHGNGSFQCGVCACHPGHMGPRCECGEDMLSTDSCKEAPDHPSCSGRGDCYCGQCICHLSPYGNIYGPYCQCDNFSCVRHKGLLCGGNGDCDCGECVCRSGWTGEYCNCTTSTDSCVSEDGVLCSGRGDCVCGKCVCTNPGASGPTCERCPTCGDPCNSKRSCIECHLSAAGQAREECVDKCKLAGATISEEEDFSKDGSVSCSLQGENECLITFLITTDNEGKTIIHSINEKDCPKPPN
Summary of the method: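 Plates coated with recombinant human αVβ6 (2 μg/mL) and blocked; compounds competed with TGFβ1 LAP (0.67 μg/mL) in Mn2+ (0.5 mM)/BSA/sucrose TBS for 2 h at 25° C. Bound LAP detected by biotin anti-LAP and peroxidase-streptavidin; IC50 by four-parameter logistic fit.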
Compound `O=C(O)[C@H](CCN(CCCCc1ccc2c(n1)NCCC2)C1CC1)Nc1ccnc(C(F)(F)F)n1` [Compound 115, (S)-4-(cyclopropyl(4-(5,6,7,8-tetrahydro-1,8-naphthyridin-2-yl)butyl)amino)-2-((2-(trifluoromethyl)pyrimidin-4-yl)amino) butanoic Acid] has an IC50 of 50 to 250 nM.
Work on `O=C(O)[C@H](CCN(CCCCc1ccc2c(n1)NCCC2)C1CC1)Nc1ncnc2[nH]ncc12` [Compound 116, (S)-2-((1H-pyrazolo[3,4-d]pyrimidin-4-yl)amino)-4-(cyclopropyl(4-(5,6,7,8-tetrahydro-1,8-naphthyridin-2-yl)butyl)amino) butanoic Acid] yielded an IC50 of 50 to 250 nM.
`O=C(O)[C@H](CCN(CCCCc1ccc2c(n1)NCCC2)CCOc1ccccc1)Nc1ncc(C2CC2)cn1` [Compound 117, (S)-2-((5-cyclopropylpyrimidin-2-yl)amino)-4-((2-phenoxyethyl) (4-(5,6,7,8-tetrahydro-1,8-naphthyridin-2-yl)butyl)amino) butanoic Acid] showed an IC50 of less than 50 nM.
`N#Cc1cnc(N[C@@H](CCN(CCCCc2ccc3c(n2)NCCC3)CC(F)F)C(=O)O)nc1` [Compound 118, (S)-2-((5-cyanopyrimidin-2-yl)amino)-4-((2,2-difluoroethyl) (4-(5,6,7,8-tetrahydro-1,8-naphthyridin-2-yl)butyl)amino) butanoic Acid] showed an IC50 greater than 1000 nM.
In the case of `O=C(O)[C@H](CCN(CCCCc1ccc2c(n1)NCCC2)CC(F)F)Nc1ncncc1-c1ccccc1` [Compound 119, (S)-4-((2,2-difluoroethyl) (4-(5,6,7,8-tetrahydro-1,8-naphthyridin-2-yl)butyl)amino)-2-((5-phenylpyrimidin-4-yl)amino) butanoic Acid], the IC50 is reported as greater than 1000 nM.
For `O=C(O)[C@H](CCN(CCCCc1ccc2c(n1)NCCC2)CC(F)F)Nc1ccncn1` [Compound 120, (S)-4-((2,2-difluoroethyl) (4-(5,6,7,8-tetrahydro-1,8-naphthyridin-2-yl)butyl)amino)-2-(pyrimidin-4-ylamino) butanoic Acid], the IC50 was greater than 1000 nM.
`O=C(O)[C@H](CCN(CCCCc1ccc2c(n1)NCCC2)CC(F)F)Nc1ncc(F)cn1` [Compound 121, (S)-4-((2,2-difluoroethyl) (4-(5,6,7,8-tetrahydro-1,8-naphthyridin-2-yl)butyl)amino)-2-((5-fluoropyrimidin-2-yl)amino) butanoic Acid] gave an IC50 greater than 1000 nM.
`Cc1cc(N[C@@H](CCN(CCCCc2ccc3c(n2)NCCC3)CC(F)F)C(=O)O)nc(-c2ccncc2)n1` [Compound 122, (S)-4-((2,2-difluoroethyl) (4-(5,6,7,8-tetrahydro-1,8-naphthyridin-2-yl)butyl)amino)-2-((6-methyl-2-(pyridin-4-yl)pyrimidin-4-yl)amino) butanoic Acid] gave an IC50 of 250 to 1000 nM.
`Cn1ncc2c(N[C@@H](CCN(CCCCc3ccc4c(n3)NCCC4)CCOc3ccc(F)cc3)C(=O)O)ncnc21` [Compound 123, (S)-4-((2-(4-fluorophenoxy)ethyl) (4-(5,6,7,8-tetrahydro-1,8-naphthyridin-2-yl)butyl)amino)-2-((1-methyl-1H-pyrazolo[3,4-d]pyrimidin-4-yl)amino) butanoic Acid] gave an IC50 of less than 50 nM.
`CO[C@H](C)CN(CCCCc1ccc2c(n1)NCCC2)CC[C@H](Nc1ncc(C2CC2)cn1)C(=O)O` [Compound 124, (S)-2-((5-cyclopropylpyrimidin-2-yl)amino)-4-(((R)-2-methoxypropyl) (4-(5,6,7,8-tetrahydro-1,8-naphthyridin-2-yl)butyl)amino) butanoic Acid] gave an IC50 of less than 50 nM.
With `CS(=O)(=O)CCN(CCCCc1ccc2c(n1)NCCC2)CC[C@H](Nc1ncnc2[nH]ncc12)C(=O)O` [Compound 125, (S)-2-((1H-pyrazolo[3,4-d]pyrimidin-4-yl)amino)-4-((2-(methylsulfonyl)ethyl) (4-(5,6,7,8-tetrahydro-1,8-naphthyridin-2-yl)butyl)amino) butanoic Acid] the IC50 was 50 to 250 nM.
